Molecules are shown by their SMILES.

The results in this text go back to patent publication US9296704B2, “Substituted pyrimidines as protein kinase inhibitors” (CELGENE AVILOMICS RESEARCH, INC., priority 2007, dated 2016).

For one assay, the target named is T1, JAK3 (Homo sapiens, UniProt P52333).
T1 sequence (P52333 1-1124): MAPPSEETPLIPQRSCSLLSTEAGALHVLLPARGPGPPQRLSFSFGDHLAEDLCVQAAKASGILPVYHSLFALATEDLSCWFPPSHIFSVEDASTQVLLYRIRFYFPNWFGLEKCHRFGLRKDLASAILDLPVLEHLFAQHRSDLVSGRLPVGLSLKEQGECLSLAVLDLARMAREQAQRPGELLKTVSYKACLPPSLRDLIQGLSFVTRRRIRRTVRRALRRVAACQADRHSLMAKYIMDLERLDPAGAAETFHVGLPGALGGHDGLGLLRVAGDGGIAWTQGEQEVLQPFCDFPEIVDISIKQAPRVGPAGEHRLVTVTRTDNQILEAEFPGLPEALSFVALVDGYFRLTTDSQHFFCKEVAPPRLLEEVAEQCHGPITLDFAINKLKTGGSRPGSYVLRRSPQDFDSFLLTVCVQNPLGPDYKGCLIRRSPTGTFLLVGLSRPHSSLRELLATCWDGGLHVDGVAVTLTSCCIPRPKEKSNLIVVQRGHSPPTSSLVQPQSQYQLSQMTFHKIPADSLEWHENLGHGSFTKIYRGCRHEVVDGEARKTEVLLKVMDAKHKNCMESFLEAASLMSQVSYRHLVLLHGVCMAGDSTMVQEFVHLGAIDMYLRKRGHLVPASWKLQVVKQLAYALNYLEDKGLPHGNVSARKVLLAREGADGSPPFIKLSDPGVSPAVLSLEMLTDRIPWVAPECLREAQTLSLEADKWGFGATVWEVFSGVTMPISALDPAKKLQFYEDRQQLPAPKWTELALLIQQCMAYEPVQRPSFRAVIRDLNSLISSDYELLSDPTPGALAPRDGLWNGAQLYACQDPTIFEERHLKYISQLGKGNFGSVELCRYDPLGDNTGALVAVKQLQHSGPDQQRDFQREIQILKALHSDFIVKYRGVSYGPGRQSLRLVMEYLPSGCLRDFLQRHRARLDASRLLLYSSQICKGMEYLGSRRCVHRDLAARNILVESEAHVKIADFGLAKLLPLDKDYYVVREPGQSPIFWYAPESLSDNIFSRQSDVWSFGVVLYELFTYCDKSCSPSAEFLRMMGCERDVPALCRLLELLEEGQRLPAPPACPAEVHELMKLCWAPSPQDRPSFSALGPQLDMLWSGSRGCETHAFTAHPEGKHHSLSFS
Kind of assay: Omnia assay for potency against JAK3. Conditions: read-out: JAK3 Inhibition. Format: biochemical. In short, it runs like this:
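Continuous-read Omnia kinase assay with 5 nM JAK3, 5 μM ATP (near apparent Km) and 5 μM Y12-Sox peptide in Tris pH 7.5/MgCl2 buffer; enzyme pre-incubated with compound 30 min at 27 °C. Fluorescence (ex360/em485) read over 60 min; initial velocities fitted against inhibitor concentration to give IC50.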

In another assay the target is T2, EGFR (WT) (Homo sapiens, UniProt P00533).
T2 construct: purchased Invitrogen PV3872
T2 sequence (P00533 25-1210): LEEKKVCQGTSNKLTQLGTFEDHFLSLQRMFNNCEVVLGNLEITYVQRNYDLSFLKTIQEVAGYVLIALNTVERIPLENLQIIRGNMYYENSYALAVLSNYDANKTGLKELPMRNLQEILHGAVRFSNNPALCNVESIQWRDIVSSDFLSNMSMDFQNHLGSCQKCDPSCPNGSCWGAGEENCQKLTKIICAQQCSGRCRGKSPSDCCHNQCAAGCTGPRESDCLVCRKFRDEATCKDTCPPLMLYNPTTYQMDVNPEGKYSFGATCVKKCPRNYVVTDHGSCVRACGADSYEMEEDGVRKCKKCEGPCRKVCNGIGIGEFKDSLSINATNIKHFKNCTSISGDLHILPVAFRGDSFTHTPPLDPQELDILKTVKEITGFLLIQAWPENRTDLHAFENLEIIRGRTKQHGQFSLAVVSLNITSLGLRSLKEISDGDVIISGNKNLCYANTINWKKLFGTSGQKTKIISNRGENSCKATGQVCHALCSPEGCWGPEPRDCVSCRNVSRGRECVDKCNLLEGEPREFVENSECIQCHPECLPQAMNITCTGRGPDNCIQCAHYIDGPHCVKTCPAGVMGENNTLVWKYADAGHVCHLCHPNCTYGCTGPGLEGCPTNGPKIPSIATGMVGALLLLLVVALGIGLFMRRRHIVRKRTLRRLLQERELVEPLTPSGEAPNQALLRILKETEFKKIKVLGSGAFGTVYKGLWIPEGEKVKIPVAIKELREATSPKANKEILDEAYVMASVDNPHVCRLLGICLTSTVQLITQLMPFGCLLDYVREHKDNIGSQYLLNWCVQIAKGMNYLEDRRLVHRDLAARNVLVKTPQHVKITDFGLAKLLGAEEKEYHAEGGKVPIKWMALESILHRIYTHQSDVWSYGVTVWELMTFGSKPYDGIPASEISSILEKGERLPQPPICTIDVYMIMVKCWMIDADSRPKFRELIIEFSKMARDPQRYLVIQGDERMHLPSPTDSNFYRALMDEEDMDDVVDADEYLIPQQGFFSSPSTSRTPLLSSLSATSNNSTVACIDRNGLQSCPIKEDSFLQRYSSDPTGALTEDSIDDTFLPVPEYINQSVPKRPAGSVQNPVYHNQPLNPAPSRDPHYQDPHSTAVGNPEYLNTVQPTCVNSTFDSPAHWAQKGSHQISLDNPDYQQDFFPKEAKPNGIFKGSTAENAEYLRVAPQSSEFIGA
The assay is described as follows: Omnia continuous-read kinase assay, EGFR (WT). Format: biochemical. Conditions: read-out: EGFR inhibtion. In short, it runs like this: (§1)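 Enzyme pre-incubated 30 min at 27 °C with compound, then ATP/Y12-Sox peptide added; fluorescence (ex360/em485) read continuously 60 min in 20 mM Tris pH 7.5, 5 mM MgCl2, 0.2 mM DTT. WT: 5 nM enzyme, […]; T790M/L858R: 3 nM enzyme, […]. IC50 from initial velocities, variable-slope fit.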

The next assay deals with T3, EGFR (T790M/L858R) (Homo sapiens, UniProt P00533, L858R/T790M).
T3 construct: purchased BPS Bioscience 40350
T3 sequence (P00533 25-1210 T790M/L858R): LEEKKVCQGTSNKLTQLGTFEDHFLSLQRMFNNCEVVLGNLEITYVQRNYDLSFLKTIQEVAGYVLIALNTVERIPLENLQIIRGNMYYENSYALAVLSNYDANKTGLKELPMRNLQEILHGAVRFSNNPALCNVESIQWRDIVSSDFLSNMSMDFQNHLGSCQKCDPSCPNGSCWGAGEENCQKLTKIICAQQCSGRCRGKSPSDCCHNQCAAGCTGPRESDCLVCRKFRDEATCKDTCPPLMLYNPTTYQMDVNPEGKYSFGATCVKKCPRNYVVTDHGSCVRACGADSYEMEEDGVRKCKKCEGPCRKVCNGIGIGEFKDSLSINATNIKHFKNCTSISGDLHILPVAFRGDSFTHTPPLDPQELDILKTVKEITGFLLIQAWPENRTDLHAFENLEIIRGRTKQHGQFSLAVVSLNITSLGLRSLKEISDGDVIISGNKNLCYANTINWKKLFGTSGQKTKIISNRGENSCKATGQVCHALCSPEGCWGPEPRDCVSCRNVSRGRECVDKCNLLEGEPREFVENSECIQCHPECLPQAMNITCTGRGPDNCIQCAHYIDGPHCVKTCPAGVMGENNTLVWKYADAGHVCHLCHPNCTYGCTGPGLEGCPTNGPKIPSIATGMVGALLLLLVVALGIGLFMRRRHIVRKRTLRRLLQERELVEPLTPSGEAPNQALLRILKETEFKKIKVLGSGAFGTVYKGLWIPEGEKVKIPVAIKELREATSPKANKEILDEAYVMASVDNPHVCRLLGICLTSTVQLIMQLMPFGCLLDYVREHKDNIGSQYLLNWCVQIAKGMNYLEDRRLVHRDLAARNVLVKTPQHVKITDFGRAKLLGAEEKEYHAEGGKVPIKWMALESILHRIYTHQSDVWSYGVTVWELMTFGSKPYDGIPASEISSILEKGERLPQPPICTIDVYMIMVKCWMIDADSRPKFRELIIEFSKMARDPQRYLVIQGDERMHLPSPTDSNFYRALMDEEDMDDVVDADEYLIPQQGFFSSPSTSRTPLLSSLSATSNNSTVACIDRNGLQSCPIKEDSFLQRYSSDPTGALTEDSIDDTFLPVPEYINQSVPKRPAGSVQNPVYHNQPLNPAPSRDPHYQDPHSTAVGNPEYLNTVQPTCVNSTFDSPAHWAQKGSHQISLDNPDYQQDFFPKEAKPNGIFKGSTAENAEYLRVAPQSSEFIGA
The assay is described as follows: Omnia continuous-read kinase assay, EGFR (T790M/L858R). Conditions: read-out: EGFR (T790M/L858R) inhibiton. Format: biochemical. Summed up: as §1

The test system of assay [1] is BTK signaling in Ramos cells. The assay is described as follows: BTK Ramos cellular assay (PLCγ2 phosphorylation). Format: cell-based. Conditions: Homo sapiens; for IC50: Ramos cells, PLCγ2 phosphorylation, read-out: BTK Inhibition.

Take `C=CC(=O)Nc1cccc(Nc2cc(Nc3cccc(Br)c3)ncn2)c1` [I-1, N-{3-[6-(3-bromophenylamino)-pyrimidin-4-ylamino]-phenyl}-2-propenamide]: the IC50 on JAK3, on EGFR (WT) and at EGFR (T790M/L858R) was at most 10 nM throughout.

As usually defined, the inhibition is the share of the control response that was lost under treatment. Higher therefore signals a strong effect. Regarding `C=CC(=O)Nc1cccc(Nc2cc(Nc3ccc(Oc4ccccc4)cc3)ncn2)c1` [I-13, N-{3-[6-(4-phenoxyphenylamino)-pyrimidin-4-ylamino]phenyl}-2 propenamide], the IC50 at JAK3 is 100 to 1000 nM; at EGFR (WT) it was at most 10 nM; in assay [1], 10 to 100 nM; at EGFR (T790M/L858R) it was 10 to 100 nM. In assay [1] (Ramos, at 1 μM, 1 hour), this molecule had an inhibition at 1 µM of 85%.

Turning to `C=CC(=O)Nc1cccc(Nc2cc(Nc3ccc(Oc4ccccc4)cc3)ncn2)n1` [I-63], the IC50 on JAK3 is 10 to 100 nM; on EGFR (WT) it was at most 10 nM; in assay [1], at most 10 nM; on EGFR (T790M/L858R) it was at most 10 nM.

With `CN(C)C/C=C/C(=O)Nc1cccc(Nc2cc(Nc3ccc(Oc4ccccc4)cc3)ncn2)n1` [I-64, (E)-4-(dimethylamino)-N-(6-(6-(4-phenoxyphenylamino)pyrimidin-4-ylamino)pyridine-2-yl)but-2-enamide], the IC50 on JAK3 is at most 10 nM; in assay [1], 10 to 100 nM.

As to `C=CC(=O)Nc1cccc(Nc2cc(Oc3cccc(C)c3)ncn2)n1` [I-65], the IC50 at JAK3 is at most 10 nM; on EGFR (WT) it was at most 10 nM; at EGFR (T790M/L858R) it was 10 to 100 nM.

Regarding `C=CC(=O)Nc1cccc(Nc2cc(Oc3ccc(Oc4ccccc4)cc3)ncn2)n1` [I-66], the IC50 on JAK3 was 100 to 1000 nM; on EGFR (WT), at most 10 nM; at EGFR (T790M/L858R), 100 to 1000 nM.

As for `C=CC(=O)N(C)c1cccc(Nc2cc(Nc3ccc(Oc4ccccc4)cc3)ncn2)n1` [I-78, N-methyl-N-(6-(6-(4-phenoxyphenylamino)pyrimidin-4-ylamino)pyridin-2-yl)acrylamide], the IC50 (at JAK3; on EGFR (WT); in assay [1]) was at most 10 nM in each case.

As for `CN(C)C/C=C/C(=O)N(C)c1cccc(Nc2cc(Nc3ccc(Oc4ccccc4)cc3)ncn2)n1` [I-79, (E)-4-(dimethylamino)-N-methyl-N-(6-(6-(4-phenoxyphenylamino)pyrimidin-4-ylamino)pyridine-2-yl)but-2-enamide], the IC50 (at JAK3; at EGFR (WT); in assay [1]) was at most 10 nM in each case.

In the case of `Cc1cccc(Oc2cc(Nc3cccc(NC(=O)/C=C/CN(C)C)n3)ncn2)c1` [I-81], the IC50 (at JAK3; at EGFR (WT); in assay [1]) was at most 10 nM in each case.

With `C=CC(=O)Nc1cccc(Nc2cc(Nc3ccccc3)ncn2)n1` [I-94], the IC50 on JAK3, on EGFR (WT) and on EGFR (T790M/L858R) was at most 10 nM in each case.
